This is an account of results in the OligoGym collection.

For this series, the target named is TMEM63B. Briefly: reporter assay of Huesken 2005. To be noted: siRNA. (Reporter assays use an easily measured gene product as a stand-in for the process of interest.)

Oligonucleotides are given in HELM: sugar(base)linkage, 5' to 3'; d 2'-deoxyribose, r ribose, m 2'-O-methylribose, p phosphate. ss, as = sense and antisense strand
Also: test concentration or dose not given here.

In turn, “RNA1{r(C)p.r(C)p.r(U)p.r(G)p.r(C)p.r(U)p.r(C)p.r(A)p.r(U)p.r(G)p.r(U)p.r(A)p.r(C)p.r(A)p.r(U)p.r(G)p.r(A)p.r(U)p.r(C)p.d(T)p.d(T)}|RNA2{r(G)p.r(A)p.r(U)p.r(C)p.r(A)p.r(U)p.r(G)p.r(U)p.r(A)p.r(C)p.r(A)p.r(U)p.r(G)p.r(A)p.r(G)p.r(C)p.r(A)p.r(G)p.r(G)p.d(C)p.d(C)}$$$RNA1{StrandType:ss}|RNA2{StrandType:as}$” had a normalised inhibition (eCFP-eYFP dual reporter) of 73.1%.

In turn, “RNA1{r(U)p.r(A)p.r(C)p.r(C)p.r(U)p.r(C)p.r(A)p.r(G)p.r(U)p.r(G)p.r(C)p.r(C)p.r(C)p.r(A)p.r(C)p.r(A)p.r(A)p.r(C)p.r(U)p.d(T)p.d(T)}|RNA2{r(A)p.r(G)p.r(U)p.r(U)p.r(G)p.r(U)p.r(G)p.r(G)p.r(G)p.r(C)p.r(A)p.r(C)p.r(U)p.r(G)p.r(A)p.r(G)p.r(G)p.r(U)p.r(A)p.d(T)p.d(T)}$$$RNA1{StrandType:ss}|RNA2{StrandType:as}$” registered a normalised inhibition (eCFP-eYFP dual reporter) of 51.3%.

Substance “RNA1{r(G)p.r(G)p.r(U)p.r(G)p.r(G)p.r(C)p.r(C)p.r(G)p.r(C)p.r(G)p.r(C)p.r(C)p.r(C)p.r(A)p.r(U)p.r(C)p.r(C)p.r(U)p.r(C)p.d(T)p.d(T)}|RNA2{r(G)p.r(A)p.r(G)p.r(G)p.r(A)p.r(U)p.r(G)p.r(G)p.r(G)p.r(C)p.r(G)p.r(C)p.r(G)p.r(G)p.r(C)p.r(C)p.r(A)p.r(C)p.r(C)p.d(A)p.d(C)}$$$RNA1{StrandType:ss}|RNA2{StrandType:as}$” gave a normalised inhibition (eCFP-eYFP dual reporter) of 49.4%.

As to “RNA1{r(C)p.r(C)p.r(C)p.r(G)p.r(U)p.r(G)p.r(U)p.r(U)p.r(A)p.r(C)p.r(A)p.r(A)p.r(C)p.r(G)p.r(U)p.r(G)p.r(G)p.r(C)p.r(U)p.d(T)p.d(T)}|RNA2{r(A)p.r(G)p.r(C)p.r(C)p.r(A)p.r(C)p.r(G)p.r(U)p.r(U)p.r(G)p.r(U)p.r(A)p.r(A)p.r(C)p.r(A)p.r(C)p.r(G)p.r(G)p.r(G)p.d(C)p.d(G)}$$$RNA1{StrandType:ss}|RNA2{StrandType:as}$”, the normalised inhibition (eCFP-eYFP dual reporter) worked out at 75.8%.

Substance “RNA1{r(C)p.r(C)p.r(U)p.r(U)p.r(U)p.r(G)p.r(U)p.r(C)p.r(A)p.r(C)p.r(C)p.r(U)p.r(U)p.r(C)p.r(C)p.r(A)p.r(C)p.r(A)p.r(A)p.d(T)p.d(T)}|RNA2{r(U)p.r(U)p.r(G)p.r(U)p.r(G)p.r(G)p.r(A)p.r(A)p.r(G)p.r(G)p.r(U)p.r(G)p.r(A)p.r(C)p.r(A)p.r(A)p.r(A)p.r(G)p.r(G)p.d(C)p.d(C)}$$$RNA1{StrandType:ss}|RNA2{StrandType:as}$” came in with a normalised inhibition (eCFP-eYFP dual reporter) of 74.2%.

“RNA1{r(G)p.r(C)p.r(A)p.r(C)p.r(A)p.r(A)p.r(G)p.r(U)p.r(G)p.r(C)p.r(U)p.r(A)p.r(C)p.r(A)p.r(C)p.r(U)p.r(U)p.r(U)p.r(C)p.d(T)p.d(T)}|RNA2{r(G)p.r(A)p.r(A)p.r(A)p.r(G)p.r(U)p.r(G)p.r(U)p.r(A)p.r(G)p.r(C)p.r(A)p.r(C)p.r(U)p.r(U)p.r(G)p.r(U)p.r(G)p.r(C)p.d(A)p.d(T)}$$$RNA1{StrandType:ss}|RNA2{StrandType:as}$” had a normalised inhibition (eCFP-eYFP dual reporter) of 83.6%.

As to “RNA1{r(A)p.r(U)p.r(G)p.r(C)p.r(G)p.r(U)p.r(A)p.r(G)p.r(A)p.r(C)p.r(A)p.r(C)p.r(A)p.r(C)p.r(C)p.r(U)p.r(C)p.r(C)p.r(A)p.d(T)p.d(T)}|RNA2{r(U)p.r(G)p.r(G)p.r(A)p.r(G)p.r(G)p.r(U)p.r(G)p.r(U)p.r(G)p.r(U)p.r(C)p.r(U)p.r(A)p.r(C)p.r(G)p.r(C)p.r(A)p.r(U)p.d(G)p.d(C)}$$$RNA1{StrandType:ss}|RNA2{StrandType:as}$”, the normalised inhibition (eCFP-eYFP dual reporter) came to 76.8%.

Substance “RNA1{r(C)p.r(G)p.r(C)p.r(A)p.r(U)p.r(C)p.r(C)p.r(C)p.r(A)p.r(G)p.r(G)p.r(C)p.r(C)p.r(U)p.r(G)p.r(C)p.r(U)p.r(C)p.r(A)p.d(T)p.d(T)}|RNA2{r(U)p.r(G)p.r(A)p.r(G)p.r(C)p.r(A)p.r(G)p.r(G)p.r(C)p.r(C)p.r(U)p.r(G)p.r(G)p.r(G)p.r(A)p.r(U)p.r(G)p.r(C)p.r(G)p.d(C)p.d(A)}$$$RNA1{StrandType:ss}|RNA2{StrandType:as}$” returned a normalised inhibition (eCFP-eYFP dual reporter) of 74.9%.

As for “RNA1{r(C)p.r(C)p.r(U)p.r(U)p.r(C)p.r(C)p.r(A)p.r(C)p.r(A)p.r(A)p.r(U)p.r(G)p.r(A)p.r(G)p.r(A)p.r(C)p.r(U)p.r(A)p.r(U)p.d(T)p.d(T)}|RNA2{r(A)p.r(U)p.r(A)p.r(G)p.r(U)p.r(C)p.r(U)p.r(C)p.r(A)p.r(U)p.r(U)p.r(G)p.r(U)p.r(G)p.r(G)p.r(A)p.r(A)p.r(G)p.r(G)p.d(T)p.d(G)}$$$RNA1{StrandType:ss}|RNA2{StrandType:as}$”, the normalised inhibition (eCFP-eYFP dual reporter) worked out at 72.3%.

“RNA1{r(C)p.r(U)p.r(U)p.r(U)p.r(U)p.r(C)p.r(C)p.r(A)p.r(C)p.r(C)p.r(A)p.r(U)p.r(G)p.r(C)p.r(G)p.r(C)p.r(A)p.r(C)p.r(G)p.d(T)p.d(T)}|RNA2{r(C)p.r(G)p.r(U)p.r(G)p.r(C)p.r(G)p.r(C)p.r(A)p.r(U)p.r(G)p.r(G)p.r(U)p.r(G)p.r(G)p.r(A)p.r(A)p.r(A)p.r(A)p.r(G)p.d(A)p.d(A)}$$$RNA1{StrandType:ss}|RNA2{StrandType:as}$” returned a normalised inhibition (eCFP-eYFP dual reporter) of 0%.

As to “RNA1{r(A)p.r(U)p.r(G)p.r(G)p.r(A)p.r(A)p.r(U)p.r(C)p.r(U)p.r(C)p.r(C)p.r(A)p.r(A)p.r(A)p.r(U)p.r(A)p.r(U)p.r(G)p.r(C)p.d(T)p.d(T)}|RNA2{r(G)p.r(C)p.r(A)p.r(U)p.r(A)p.r(U)p.r(U)p.r(U)p.r(G)p.r(G)p.r(A)p.r(G)p.r(A)p.r(U)p.r(U)p.r(C)p.r(C)p.r(A)p.r(U)p.d(T)p.d(G)}$$$RNA1{StrandType:ss}|RNA2{StrandType:as}$”, the normalised inhibition (eCFP-eYFP dual reporter) is 78.7%.

In turn, “RNA1{r(C)p.r(U)p.r(U)p.r(G)p.r(A)p.r(A)p.r(A)p.r(U)p.r(C)p.r(A)p.r(G)p.r(G)p.r(G)p.r(A)p.r(A)p.r(C)p.r(A)p.r(A)p.r(C)p.d(T)p.d(T)}|RNA2{r(G)p.r(U)p.r(U)p.r(G)p.r(U)p.r(U)p.r(C)p.r(C)p.r(C)p.r(U)p.r(G)p.r(A)p.r(U)p.r(U)p.r(U)p.r(C)p.r(A)p.r(A)p.r(G)p.d(T)p.d(T)}$$$RNA1{StrandType:ss}|RNA2{StrandType:as}$” showed a normalised inhibition (eCFP-eYFP dual reporter) of 71.1%.

Substance “RNA1{r(G)p.r(A)p.r(C)p.r(C)p.r(G)p.r(G)p.r(U)p.r(A)p.r(U)p.r(G)p.r(A)p.r(G)p.r(C)p.r(G)p.r(U)p.r(C)p.r(U)p.r(C)p.r(A)p.d(T)p.d(T)}|RNA2{r(U)p.r(G)p.r(A)p.r(G)p.r(A)p.r(C)p.r(G)p.r(C)p.r(U)p.r(C)p.r(A)p.r(U)p.r(A)p.r(C)p.r(C)p.r(G)p.r(G)p.r(U)p.r(C)p.d(A)p.d(T)}$$$RNA1{StrandType:ss}|RNA2{StrandType:as}$” showed a normalised inhibition (eCFP-eYFP dual reporter) of 99%.

Substance “RNA1{r(C)p.r(U)p.r(G)p.r(C)p.r(U)p.r(C)p.r(A)p.r(U)p.r(G)p.r(U)p.r(A)p.r(C)p.r(A)p.r(U)p.r(G)p.r(A)p.r(U)p.r(C)p.r(C)p.d(T)p.d(T)}|RNA2{r(G)p.r(G)p.r(A)p.r(U)p.r(C)p.r(A)p.r(U)p.r(G)p.r(U)p.r(A)p.r(C)p.r(A)p.r(U)p.r(G)p.r(A)p.r(G)p.r(C)p.r(A)p.r(G)p.d(G)p.d(C)}$$$RNA1{StrandType:ss}|RNA2{StrandType:as}$” had a normalised inhibition (eCFP-eYFP dual reporter) of 49%.

For “RNA1{r(A)p.r(G)p.r(A)p.r(G)p.r(G)p.r(C)p.r(G)p.r(C)p.r(A)p.r(A)p.r(C)p.r(G)p.r(U)p.r(G)p.r(A)p.r(A)p.r(G)p.r(C)p.r(G)p.d(T)p.d(T)}|RNA2{r(C)p.r(G)p.r(C)p.r(U)p.r(U)p.r(C)p.r(A)p.r(C)p.r(G)p.r(U)p.r(U)p.r(G)p.r(C)p.r(G)p.r(C)p.r(C)p.r(U)p.r(C)p.r(U)p.d(C)p.d(G)}$$$RNA1{StrandType:ss}|RNA2{StrandType:as}$”, the normalised inhibition (eCFP-eYFP dual reporter) was determined as 35.7%.

“RNA1{r(C)p.r(G)p.r(C)p.r(U)p.r(C)p.r(A)p.r(G)p.r(G)p.r(U)p.r(G)p.r(C)p.r(U)p.r(G)p.r(C)p.r(A)p.r(G)p.r(G)p.r(A)p.r(C)p.d(T)p.d(T)}|RNA2{r(G)p.r(U)p.r(C)p.r(C)p.r(U)p.r(G)p.r(C)p.r(A)p.r(G)p.r(C)p.r(A)p.r(C)p.r(C)p.r(U)p.r(G)p.r(A)p.r(G)p.r(C)p.r(G)p.d(A)p.d(T)}$$$RNA1{StrandType:ss}|RNA2{StrandType:as}$” gave a normalised inhibition (eCFP-eYFP dual reporter) of 46.2%.

For the substance “RNA1{r(C)p.r(G)p.r(A)p.r(G)p.r(G)p.r(C)p.r(U)p.r(G)p.r(U)p.r(G)p.r(A)p.r(G)p.r(C)p.r(A)p.r(G)p.r(G)p.r(U)p.r(G)p.r(G)p.d(T)p.d(T)}|RNA2{r(C)p.r(C)p.r(A)p.r(C)p.r(C)p.r(U)p.r(G)p.r(C)p.r(U)p.r(C)p.r(A)p.r(C)p.r(A)p.r(G)p.r(C)p.r(C)p.r(U)p.r(C)p.r(G)p.d(C)p.d(A)}$$$RNA1{StrandType:ss}|RNA2{StrandType:as}$”, the normalised inhibition (eCFP-eYFP dual reporter) was 42.2%.

“RNA1{r(A)p.r(C)p.r(G)p.r(G)p.r(A)p.r(C)p.r(A)p.r(C)p.r(A)p.r(G)p.r(A)p.r(C)p.r(U)p.r(U)p.r(C)p.r(C)p.r(A)p.r(G)p.r(U)p.d(T)p.d(T)}|RNA2{r(A)p.r(C)p.r(U)p.r(G)p.r(G)p.r(A)p.r(A)p.r(G)p.r(U)p.r(C)p.r(U)p.r(G)p.r(U)p.r(G)p.r(U)p.r(C)p.r(C)p.r(G)p.r(U)p.d(G)p.d(A)}$$$RNA1{StrandType:ss}|RNA2{StrandType:as}$” displayed a normalised inhibition (eCFP-eYFP dual reporter) of 85.7%.

For the substance “RNA1{r(C)p.r(A)p.r(G)p.r(G)p.r(C)p.r(C)p.r(U)p.r(G)p.r(C)p.r(U)p.r(C)p.r(A)p.r(U)p.r(G)p.r(U)p.r(A)p.r(C)p.r(A)p.r(U)p.d(T)p.d(T)}|RNA2{r(A)p.r(U)p.r(G)p.r(U)p.r(A)p.r(C)p.r(A)p.r(U)p.r(G)p.r(A)p.r(G)p.r(C)p.r(A)p.r(G)p.r(G)p.r(C)p.r(C)p.r(U)p.r(G)p.d(G)p.d(G)}$$$RNA1{StrandType:ss}|RNA2{StrandType:as}$”, the normalised inhibition (eCFP-eYFP dual reporter) stood at 72.1%.

In turn, “RNA1{r(G)p.r(C)p.r(A)p.r(A)p.r(C)p.r(G)p.r(U)p.r(G)p.r(A)p.r(A)p.r(G)p.r(C)p.r(G)p.r(G)p.r(C)p.r(A)p.r(U)p.r(C)p.r(A)p.d(T)p.d(T)}|RNA2{r(U)p.r(G)p.r(A)p.r(U)p.r(G)p.r(C)p.r(C)p.r(G)p.r(C)p.r(U)p.r(U)p.r(C)p.r(A)p.r(C)p.r(G)p.r(U)p.r(U)p.r(G)p.r(C)p.d(G)p.d(C)}$$$RNA1{StrandType:ss}|RNA2{StrandType:as}$” registered a normalised inhibition (eCFP-eYFP dual reporter) of 72.4%.
